# Measurements from PubChem BioAssay (NCI).
# “And” between values parts separate entries of the source, which are not always exact repeats. Identical values can stand only once.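 1) Cells in 96-well plates. 2) Compound, 48 h, 5 concentrations. 3) Linear interpolation between surrounding doses. 4) Unreached endpoint = highest concentration. The concentration for 50% growth inhibition is given as GI50. TGI denotes the concentration required for complete inhibition of growth.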
# Columns and labels:
# [1] = test system: P388 leukemia; experiment: NCI tumour cell line growth inhibition, 48 h
# [2] = test system: P388/ADR leukemia; experiment: NCI tumour cell line growth inhibition, 48 h
Compound,GI50 [1] [µM],TGI [1],TGI [2]
CCC/C=C/C=C/C(=O)OC1/C(=C/C(=O)OC)CC2CC(C(C)O)OC(=O)CC(O)CC3CC(OC(C)=O)C(C)(C)C(O)(CC4C/C(=C/C(=O)OC)CC(/C=C/C(C)(C)C1(O)O2)O4)O3 (stereo not given),9.73,10.9 µM and 11 µM,10.9 µM and 11 µM
NC(CSC(c1ccccc1)(c1ccccc1)c1ccccc1)C(=O)O (stereo not given),–,38.8 µM,125 µM
